From patent publication US8557793B2, “Theanine derivative, preparation method thereof, and use thereof for alleviating acne” (Amorepacific Corporation, priority 2010, dated 2013) come the findings set out here.

One data set concerns S. Epidermidis. Put plainly: Selective anti-bacterial test, count of germs after shaking culture with sample. It counts as cell-based. To be noted: for S. Epidermidis (%) count of germs: count of germs in control group without sample defined as 100%, shaking culture at 32° C. for one day; for change in the count of S. Epidermidis (in words): summary of Table 1. How it is done: (§1) Each sample was added to an aqueous solution of 1% peptone and sterilized. 20 μl/ml of a test germ solution was injected into the sample-containing sterilized aqueous solution of peptone and then subjected to shaking culture at 32° C. for one day. The test germs selected were P. acnes known as present in the skin and harmful to the skin and S. Epidermidis known as relatively harmless to the skin. The solution after the shaking culture was diluted to 1/100 with normal diluting water. 0.1 ml of the diluted solution was placed on a Petri dish and then […]. To the diluted solution was poured TS agar cooled down to about 50° C. The Petri dish hardened with the TS agar was subjected to anaerobic culture at 35° C. for one day to measure the count of the germs. The P. acnes group was subjected to anaerobic culture at 35° C. for one day and then diluted to 1/100 with normal diluting water. 0.1 ml of the diluted solution was placed on a Petri dish, hardened with BHI agar, and subjected to anaerobic culture at 35° C. for 3 days to count the germs. As comparative groups, theanine and maltose were used for the testing. The count of germs in the control group without containing the sample was defined as 100%.

A short description of data set [1]: Primary skin irritation test (closed patch test). Type of data set: in vivo, human. To be noted: for Extent of Skin Irritation: average score on scale 0 (None) to 4 (Extreme), aqueous solution, closed patch on lower arm, 20 subjects, after one day; for safety to the skin (in words): summary of Table 3. An excerpt: An aqueous solution of each theanine derivative of examples 1, 2 and 3 was applied on the lower part of the arm of 20 healthy male and female subjects according to the closed patch test method. The arm was covered with a plastic cap to block external stimuli. All numeral designations in Table 3 are averages of the irritations calculated according to the evaluation method of Table 2. [table]

In the next data set the test system is P. acnes. Put plainly: Selective anti-bacterial test, count of germs after shaking culture with sample. Type of data set: cell-based, Propionibacterium acnes. The following applies: for P. acnes (%) count of germs: count of germs in control group without sample defined as 100%, shaking culture at 32° C. for one day; for change in the count of P. acnes (in words): summary of Table 1. The procedure:
as §1

As for `CCNC(=O)CC[C@H](NCC1(O)OC[C@@H](O)C(O[C@H]2O[C@H](CO)[C@@H](O)[C@H](O)[C@H]2O)[C@@H]1O)C(=O)O` (stereo partly shown) [Example 1, Maltulosyl Theanine], in the data set with S. Epidermidis, the “S. Epidermidis (%) count of germs” value amounted to 83% and the “change in the count of S. Epidermidis (in words)” value was “no significant change”. In data set [1], the “Extent of Skin Irritation” value came to 0.1 and the “safety to the skin (in words)” value was “safe to the skin”. In the data set on P. acnes, the “P. acnes (%) count of germs” value is listed as 9% and the “change in the count of P. acnes (in words)” value is “reduced count”.
Consider `CCNC(=O)CC[C@H](NCC1(O)OC[C@@H](O)C(O[C@H]2O[C@H](CO)[C@@H](O)[C@H](O)[C@H]2O)[C@@H]1O)C(=O)OC` (stereo partly shown) [Example 2, Maltulosyl Theanine Methyl Ester], for which, in the data set on S. Epidermidis, the “S. Epidermidis (%) count of germs” value is on record as 93% and the “change in the count of S. Epidermidis (in words)” value is on record as “no significant change”. Further, in data set [1], the “Extent of Skin Irritation” value is on record as 0.2 and the “safety to the skin (in words)” value was “safe to the skin”. Further, in the data set on P. acnes, the “P. acnes (%) count of germs” value amounted to 27% and the “change in the count of P. acnes (in words)” value was “reduced count”.
As for `CCN(CC)C(=O)CC[C@H](NCC1(O)OC[C@@H](O)C(O[C@H]2O[C@H](CO)[C@@H](O)[C@H](O)[C@H]2O)[C@@H]1O)C(=O)O` (stereo partly shown) [Example 3, Maltulosyl N-Ethyl Theanine], in the data set with S. Epidermidis, the “S. Epidermidis (%) count of germs” value worked out at 86% and the “change in the count of S. Epidermidis (in words)” value is given as “no significant change”. Moreover, in data set [1], the “Extent of Skin Irritation” value turned out to be 0.1 and the “safety to the skin (in words)” value was “safe to the skin”. In addition, in the data set with P. acnes, the “P. acnes (%) count of germs” value is given as 15% and the “change in the count of P. acnes (in words)” value is listed as “reduced count”.
Take `OC[C@H]1O[C@H](O[C@H]2[C@H](O)[C@@H](O)C(O)O[C@@H]2CO)[C@H](O)[C@@H](O)[C@@H]1O` (mixture of isomers) [Maltose, maltose, reference compound]: the “S. Epidermidis (%) count of germs” value with S. Epidermidis was 89%. Further, the “P. acnes (%) count of germs” value with P. acnes is listed as 110%.
For `CCNC(=O)CC[C@H](N)C(=O)O` [Theanine, theanine] the same measures were 98% and 50%.
